Source: patent US20230150974A1 (Foghorn Therapeutics Inc., priority 2020, published 2023)

How the values were obtained:
HiBit-BRG1 = molecular target: T1, HiBit-BRG1 (Homo sapiens, UniProt P51532); experiment: HiBit-BRG1 cell-based degradation assay (Nano-Glo HiBiT Lytic Detection); conditions: HeLa cells expressing HiBit-BRG1 and LgBit, 24 h; for DC50: read-out: BRG1 HiBit Degradation IC50; for Dmax: read-out: BRG1 HiBit Degradation Maximum (%)
T1 construct: expressed in transfected cells
Outline: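 HeLa cells stably expressing HiBiT-BRG1 plus LgBit, 5000/well, treated 24 h, then lysed with Nano-Glo HiBiT lytic reagent and luminescence read. % degradation normalised between DMSO (high control) and 2 μM reference BRM/BRG1 degrader (low control).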

HiBiT-BRM = molecular target: T2, HiBiT-BRM (Homo sapiens, UniProt P51531); experiment: HiBiT-BRM cell-based degradation assay (Nano-Glo HiBiT Lytic Detection); conditions: HeLa cells expressing HiBiT-BRM, 24 h; for DC50: read-out: BRM HiBit Degradation IC50
T2 construct: expressed in transfected cells
T2 sequence (P51531 whole entry): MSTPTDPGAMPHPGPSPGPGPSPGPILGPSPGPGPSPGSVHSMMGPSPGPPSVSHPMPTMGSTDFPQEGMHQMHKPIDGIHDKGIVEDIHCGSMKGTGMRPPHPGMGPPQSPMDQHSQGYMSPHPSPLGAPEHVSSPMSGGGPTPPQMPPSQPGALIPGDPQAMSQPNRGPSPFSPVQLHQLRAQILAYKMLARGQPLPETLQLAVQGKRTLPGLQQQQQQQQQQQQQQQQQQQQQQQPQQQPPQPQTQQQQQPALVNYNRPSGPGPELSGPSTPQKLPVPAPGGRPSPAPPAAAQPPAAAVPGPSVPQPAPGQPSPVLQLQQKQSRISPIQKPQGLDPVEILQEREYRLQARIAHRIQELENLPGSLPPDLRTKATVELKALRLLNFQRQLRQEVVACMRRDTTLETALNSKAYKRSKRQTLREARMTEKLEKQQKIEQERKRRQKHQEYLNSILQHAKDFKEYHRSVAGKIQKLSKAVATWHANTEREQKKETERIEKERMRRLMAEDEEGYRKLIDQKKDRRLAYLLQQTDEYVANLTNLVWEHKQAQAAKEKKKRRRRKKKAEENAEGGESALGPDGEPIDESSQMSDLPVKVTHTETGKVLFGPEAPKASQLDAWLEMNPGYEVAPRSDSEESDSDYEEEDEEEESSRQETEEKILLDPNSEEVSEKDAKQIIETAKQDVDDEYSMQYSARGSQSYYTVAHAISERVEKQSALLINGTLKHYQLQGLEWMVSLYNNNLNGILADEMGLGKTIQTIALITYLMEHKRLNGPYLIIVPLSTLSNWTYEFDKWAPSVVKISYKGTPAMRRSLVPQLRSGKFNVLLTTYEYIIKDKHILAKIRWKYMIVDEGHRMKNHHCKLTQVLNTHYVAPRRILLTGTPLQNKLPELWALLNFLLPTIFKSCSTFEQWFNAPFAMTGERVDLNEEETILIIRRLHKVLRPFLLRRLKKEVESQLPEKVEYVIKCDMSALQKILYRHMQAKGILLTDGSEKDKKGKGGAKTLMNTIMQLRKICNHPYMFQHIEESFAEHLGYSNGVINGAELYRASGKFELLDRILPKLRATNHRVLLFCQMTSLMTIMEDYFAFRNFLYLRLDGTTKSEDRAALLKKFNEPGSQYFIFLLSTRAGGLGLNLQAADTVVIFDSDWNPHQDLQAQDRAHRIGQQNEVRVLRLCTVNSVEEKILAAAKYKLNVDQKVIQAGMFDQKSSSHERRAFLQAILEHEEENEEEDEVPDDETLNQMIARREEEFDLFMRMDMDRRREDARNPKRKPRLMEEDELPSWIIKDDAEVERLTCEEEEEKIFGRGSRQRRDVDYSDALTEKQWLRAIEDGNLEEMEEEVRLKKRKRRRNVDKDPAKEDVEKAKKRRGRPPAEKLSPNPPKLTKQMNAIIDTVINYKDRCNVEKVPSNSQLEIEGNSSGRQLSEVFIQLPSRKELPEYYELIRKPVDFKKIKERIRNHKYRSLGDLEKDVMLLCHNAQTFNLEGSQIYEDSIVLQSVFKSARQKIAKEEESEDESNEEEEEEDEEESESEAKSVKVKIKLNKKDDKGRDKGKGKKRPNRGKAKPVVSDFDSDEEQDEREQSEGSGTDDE
Outline: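 Luminescence from HiBiT–LgBiT complementation in lysates of a stable HiBiT-BRM HeLa line measured after 24 h compound exposure. Degradation expressed as percent relative to DMSO-treated cells and cells given 2 μM of a known BRM/BRG1 degrader.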

T1 sequence (P51532 whole entry): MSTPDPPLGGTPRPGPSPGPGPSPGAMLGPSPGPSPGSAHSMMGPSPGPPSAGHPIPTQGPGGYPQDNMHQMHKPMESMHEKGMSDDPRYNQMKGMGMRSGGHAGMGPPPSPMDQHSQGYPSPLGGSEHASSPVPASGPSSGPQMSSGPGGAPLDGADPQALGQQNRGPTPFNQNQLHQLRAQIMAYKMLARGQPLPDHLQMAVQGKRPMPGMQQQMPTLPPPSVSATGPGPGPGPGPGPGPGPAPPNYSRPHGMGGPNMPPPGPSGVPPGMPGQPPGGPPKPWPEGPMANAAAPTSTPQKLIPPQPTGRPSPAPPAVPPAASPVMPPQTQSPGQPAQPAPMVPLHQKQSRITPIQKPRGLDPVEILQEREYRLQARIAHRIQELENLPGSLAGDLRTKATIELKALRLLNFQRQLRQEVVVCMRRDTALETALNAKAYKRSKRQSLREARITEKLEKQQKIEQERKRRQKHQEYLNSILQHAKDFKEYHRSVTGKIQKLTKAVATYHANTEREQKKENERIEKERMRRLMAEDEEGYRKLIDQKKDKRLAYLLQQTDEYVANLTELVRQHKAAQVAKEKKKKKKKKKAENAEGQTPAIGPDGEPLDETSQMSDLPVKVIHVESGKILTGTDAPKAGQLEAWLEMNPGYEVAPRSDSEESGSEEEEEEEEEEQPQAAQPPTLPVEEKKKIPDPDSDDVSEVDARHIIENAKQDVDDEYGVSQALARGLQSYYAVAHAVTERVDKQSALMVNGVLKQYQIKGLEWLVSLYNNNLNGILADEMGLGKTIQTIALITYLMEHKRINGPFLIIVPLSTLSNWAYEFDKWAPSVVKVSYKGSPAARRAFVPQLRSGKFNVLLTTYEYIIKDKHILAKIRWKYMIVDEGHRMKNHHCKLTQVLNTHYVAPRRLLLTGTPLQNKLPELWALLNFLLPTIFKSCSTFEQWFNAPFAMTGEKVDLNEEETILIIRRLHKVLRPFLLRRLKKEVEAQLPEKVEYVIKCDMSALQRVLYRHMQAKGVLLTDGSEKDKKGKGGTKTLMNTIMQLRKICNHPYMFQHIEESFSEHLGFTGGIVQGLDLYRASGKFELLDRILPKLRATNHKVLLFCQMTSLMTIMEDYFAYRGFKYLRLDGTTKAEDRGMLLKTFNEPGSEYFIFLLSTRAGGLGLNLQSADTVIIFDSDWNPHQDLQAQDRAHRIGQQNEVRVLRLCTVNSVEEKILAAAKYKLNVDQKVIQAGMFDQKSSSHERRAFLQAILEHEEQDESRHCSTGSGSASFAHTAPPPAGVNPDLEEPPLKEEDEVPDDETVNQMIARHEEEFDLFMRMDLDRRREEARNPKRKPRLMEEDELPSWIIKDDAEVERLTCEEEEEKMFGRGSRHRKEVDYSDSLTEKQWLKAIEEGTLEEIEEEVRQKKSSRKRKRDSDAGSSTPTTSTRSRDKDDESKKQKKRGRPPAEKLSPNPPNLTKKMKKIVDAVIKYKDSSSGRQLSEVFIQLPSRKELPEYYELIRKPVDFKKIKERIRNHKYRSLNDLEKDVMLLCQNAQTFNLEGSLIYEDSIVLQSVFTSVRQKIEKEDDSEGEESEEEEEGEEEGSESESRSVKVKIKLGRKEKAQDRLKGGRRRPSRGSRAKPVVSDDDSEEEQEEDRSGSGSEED

Structure (SMILES) | DC50 (HiBit-BRG1) [µM] | Dmax (HiBit-BRG1) [%] | BRM HiBit Degradation Maximum (%) (HiBiT-BRM) | DC50 (HiBiT-BRM) [µM]
Nc1nnc(-c2ccccc2O)cc1OCCc1ccc(CNC(=O)CCCCCCCOc2cccc3c2C(=O)N(C2CCC(=O)NC2=O)C3=O)cc1 (centres unmarked) [Compound 69, N-[[4-(2-[[3-amino-6-(2-hydroxyphenyl)pyridazin-4-yl]oxy]ethyl)phenyl]methyl]-8-[[2-(2,6-dioxopiperidin-3-yl)-1,3-dioxoisoindol-4-yl]oxy]octanamide] | > 1 | < 50 | C (“C” indicates maximum degradation <50%) | > 1
Nc1nnc(-c2ccccc2O)cc1OCCc1ccc(CNC(=O)CCCCNc2cccc3nnn(C4CCC(=O)NC4=O)c(=O)c23)cc1 (centres unmarked) [Compound 1, N-(4-(2-((3-amino-6-(2-hydroxyphenyl)pyridazin-4-yl)oxy)ethyl)benzyl)-5-((3-(2,6-dioxopiperidin-3-yl)-4-oxo-3,4-dihydrobenzo[d][1,2,3]triazin-5-yl)amino)pentanamide] | > 1 |  |  | > 0.1
Cc1ncsc1-c1ccc([C@H](C)NC(=O)[C@@H]2C[C@@H](O)CN2C(=O)[C@@H](NC(=O)CCCCCCCCCNC(=O)c2ccc(CCOc3cc(-c4ccccc4O)nnc3N)cc2)C(C)(C)C)cc1 [Compound 171, (2S,4R)-1-((S)-2-(10-(4-(2-((3-amino-6-(2-hydroxyphenyl)pyridazin-4-yl)oxy)ethyl)benzamido)decanamido)-3,3-dimethylbutanoyl)-4-hydroxy-N-((S)-1-(4-(4-methylthiazol-5-yl)phenyl)ethyl)pyrrolidine-2-carboxamide] | > 1 | > 50 | A (“A” indicates maximum degradation ≥75%) | > 0.1
CN(Cc1ccc(CCOc2cc(-c3ccccc3O)nnc2N)cc1)C(=O)CCCCOc1cccc2c1C(=O)N(C1CCC(=O)NC1=O)C2=O (centres unmarked) [Compound 10, N-(4-(2-((3-amino-6-(2-hydroxyphenyl)pyridazin-4-yl)oxy)ethyl)benzyl)-5-((2-(2,6-dioxopiperidin-3-yl)-1,3-dioxoisoindolin-4-yl)oxy)-N-methylpentanamide] | > 1 | < 50 | C (“C” indicates maximum degradation <50%) | > 1
Cc1ncsc1-c1ccc(CNC(=O)[C@@H]2C[C@@H](O)CN2C(=O)[C@@H](NC(=O)CCN2CCC(O)(C(=O)NCc3ccc(CCOc4cc(-c5ccccc5O)nnc4N)cc3)CC2)C(C)(C)C)cc1 [Compound 185, N-[[4-(2-[[3-amino-6-(2-hydroxyphenyl)pyridazin-4-yl]oxy]ethyl)phenyl]methyl]-4-hydroxy-1-(2-[[(2S)-1-[(2S,4R)-4-hydroxy-2-([[4-(4-methyl-1,3-thiazol-5-yl)phenyl]methyl]carbamoyl)pyrrolidin-1-yl]-3,3-dimethyl-1-oxobutan-2-yl]carbamoyl]ethyl)piperidine-4-carboxamide] | > 1 | < 50 | C (“C” indicates maximum degradation <50%) | > 1
Nc1nnc(-c2ccccc2O)cc1OCCc1ccc(CNC(=O)CCCCNc2ccc3c(c2)CN(C2CCC(=O)NC2=O)C3=O)cc1 (centres unmarked) [Compound 137, N-(4-(2-((3-amino-6-(2-hydroxyphenyl)pyridazin-4-yl)oxy)ethyl)benzyl)-5-((2-(2,6-dioxopiperidin-3-yl)-1-oxoisoindolin-5-yl)amino)pentanamide] | > 1 | < 50 | C (“C” indicates maximum degradation <50%) | > 1
Nc1nnc(-c2ccccc2O)cc1OCCc1ccc(CNCCN2CCN(c3ccc4c(c3)C(=O)N(C3CCC(=O)NC3=O)C4=O)CC2)cc1 (centres unmarked) [Compound 3, 5-(4-(2-((4-(2-((3-amino-6-(2-hydroxyphenyl)pyridazin-4-yl)oxy)ethyl)benzyl)amino)ethyl)piperazin-1-yl)-2-(2,6-dioxopiperidin-3-yl)isoindoline-1,3-dione] | > 1 | < 50 | C (“C” indicates maximum degradation <50%) | > 1
Nc1nnc(-c2ccccc2O)cc1OCCc1ccc(CNCCCCCOc2ccc3c(c2)C(=O)N(C2CCC(=O)NC2=O)C3=O)cc1 (centres unmarked) [Compound 116, 5-((5-((4-(2-((3-amino-6-(2-hydroxyphenyl)pyridazin-4-yl)oxy)ethyl)benzyl)amino)pentyl)oxy)-2-(2,6-dioxopiperidin-3-yl)isoindoline-1,3-dione; diformic acid] | > 1 | < 50 | C (“C” indicates maximum degradation <50%) | > 1
Nc1nnc(-c2ccccc2O)cc1OCCc1ccc(C(=O)NCCCCCCNc2ccc3c(c2)C(=O)N(C2CCC(=O)NC2=O)C3=O)cc1 (centres unmarked) [Compound 46, 4-(2-[[3-amino-6-(2-hydroxyphenyl)pyridazin-4-yl]oxy]ethyl)-N-(6-[[2-(2,6-dioxopiperidin-3-yl)-1,3-dioxoisoindol-5-yl]amino]hexyl)benzamide] | > 1 | < 50 | C (“C” indicates maximum degradation <50%) | > 1
Nc1nnc(-c2ccccc2O)cc1OCCc1ccc(C(=O)NCC(=O)NCc2ccc(S(=O)(=O)Nc3cccc4c(Cl)c[nH]c34)cc2)cc1 [Compound 18, 2-[[4-(2-[[3-amino-6-(2-hydroxyphenyl)pyridazin-4-yl]oxy]ethyl)phenyl]formamido]-N-([4-[(3-chloro-1H-indol-7-yl)sulfamoyl]phenyl]methyl)acetamide] | > 1 | < 50 | C (“C” indicates maximum degradation <50%) | > 1
Cc1ncsc1-c1ccc(CNC(=O)[C@@H]2C[C@@H](O)CN2C(=O)[C@@H](NC(=O)CCCCCCCCCC(=O)NCc2ccc(CCOc3cc(-c4ccccc4O)nnc3N)cc2)C(C)(C)C)cc1 [Compound 28, N′-[[4-(2-[[3-amino-6-(2-hydroxyphenyl)pyridazin-4-yl]oxy]ethyl)phenyl]methyl]-N-[(2S)-1-[(2S,4R)-4-hydroxy-2-([[4-(4-methyl-1,3-thiazol-5-yl)phenyl]methyl]carbamoyl)pyrrolidin-1-yl]-3,3-dimethyl-1-oxobutan-2-yl]undecanediamide] | > 1 | < 50 | A (“A” indicates maximum degradation ≥75%) | > 0.1
CN(CCc1ccc(CNC(=O)CCCCNc2cccc3nnn(C4CCC(=O)NC4=O)c(=O)c23)cc1)c1cc(-c2ccccc2O)nnc1N (centres unmarked) [Compound 142, N-(4-(2-((3-amino-6-(2-hydroxyphenyl)pyridazin-4-yl)(methyl)amino)ethyl)benzyl)-5-((3-(2,6-dioxopiperidin-3-yl)-4-oxo-3,4-dihydrobenzo[d][1,2,3]triazin-5-yl)amino)pentanamide] | > 1 | < 50 | C (“C” indicates maximum degradation <50%) | > 1
Nc1nnc(-c2ccccc2O)cc1OCCc1ccc(CN2CC(CCCOc3cccc4c3C(=O)N(C3CCC(=O)NC3=O)C4=O)C2)cc1 (centres unmarked) [Compound 127, 4-[3-(1-[[4-(2-[[3-amino-6-(2-hydroxyphenyl)pyridazin-4-yl]oxy]ethyl)phenyl]methyl]azetidin-3-yl)propoxy]-2-(2,6-dioxopiperidin-3-yl)isoindole-1,3-dione] | > 1 | < 50 | C (“C” indicates maximum degradation <50%) | > 1
